Like-named read-outs stand apart in the source and are kept apart here.
Tests used:
BRD4 BD2 = biological target: T1, BRD4 BD2 (Homo sapiens, UniProt O60885); assay: AlphaScreen binding assay, BRD4 Bromodomain 2
T1 construct: made in house
In short: (§1)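 An AlphaScreen competition format was used with His-BRD4 BD1 or BD2 and biotin-H4 K5/8/12/16-acetyl peptide, each at matched final levels of 50 nM (BD1) or 100 nM (BD2). Incubation in HEPES/NaCl buffer with 0.1% BSA and 0.01% Triton X-100 ran ≥1 h before IC50 determination.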

MV4-11 cells = assay: Oncology cell growth assay (3-day proliferation, CellTiter-Glo); type: cell-based; conditions: Homo sapiens, AML cell line MV4-11, 72 hours, compounds grouped by IC50 range, read-out: MV4-11 IC50 (inhibition of proliferation, gIC50)
In short: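 Luminescence from CellTiter-Glo served as the growth read-out after MV4-11 cells (3000/well) were cultured with compound for 72 hours. Final concentrations spanned 10 to 0.0045 μM in 3-fold steps. gIC50 values were derived by four-parameter logistic fitting relative to DMSO and cell-free controls.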

BRD4 BD1 = biological target: T2, BRD4 BD1 (Homo sapiens, UniProt O60885); assay: AlphaScreen binding assay, BRD4 Bromodomain 1
T2 construct: made in house
In short: as §1

SMILES	IC50 (BRD4 BD2)	IC50 (MV4-11 cells; MV4-11, 72 h)	IC50 (BRD4 BD1)	IC50 (MV4-11 cells)
CC(=O)N1c2ccc(-c3cccc(S(=O)(=O)N(C)C)c3)cc2N(C(=O)OC2CCOCC2)C[C@@H]1C [Example I-1224]	50 to 500 nM	100 to 500 nM	100 to 1000 nM	–
CCOC(=O)N1C[C@H](C)N(C(C)=O)c2ccc(-c3cccc(S(=O)(=O)N(C)C)c3)cc21 [Example I-1048]	50 to 500 nM	> 500 nM	1000 to 10000 nM	–
CC(=O)N1c2ccc(-c3cnn(C4CC4)c3)cc2N(C(=O)Oc2ccccn2)C[C@@H]1C [Example I-1322]	< 50 nM	< 100 nM	100 to 1000 nM	–
COC(=O)N1c2ccc(-c3cnn(C4CC4)c3)cc2N(C(=O)OC2CCCC2)C[C@@H]1C [Example I-40, (S)-4-cyclopentyl 1-methyl 6-(1-cyclopropyl-1H-pyrazol-4-yl)-2-methyl-2,3-dihydroquinoxaline-1,4-dicarboxylate]	50 to 500 nM	–	100 to 1000 nM	100 to 500 nM
CC(=O)N1c2ccc(-c3ccc(NS(=O)(=O)C4CC4)cc3)cc2N(C(=O)c2ccco2)C[C@@H]1C [Example I-287]	< 50 nM	< 100 nM	100 to 1000 nM	–
CC(=O)N1c2ccc(-c3ccnc(N4CCOCC4)c3)cc2N(C(=O)c2ccco2)C[C@@H]1C [Example I-862]	50 to 500 nM	> 500 nM	100 to 1000 nM	–
CC(C)OC(=O)N1C[C@H](C)N(C(=O)C2CC2)c2ccc(-c3ccc(CS(N)(=O)=O)cc3)cc21 [Example I-476]	> 500 nM	> 500 nM	100 to 1000 nM	–
CCOC(=O)N1C[C@H](C)N(C(C)=O)c2ccc(-c3ccc(S(C)(=O)=O)c(F)c3)cc21 [Example I-1084]	50 to 500 nM	> 500 nM	1000 to 10000 nM	–
CC(=O)N1c2ccc(-c3cnn(C4COC4)c3)cc2N(C(=O)OC(CF)CF)C[C@@H]1C [Example I-72, (S)-1,3-difluoropropan-2-yl 4-acetyl-3-methyl-7-(1-(oxetan-3-yl)-1H-pyrazol-4-yl)-3,4-dihydroquinoxaline-1(2H)-carboxylate]	< 50 nM	100 to 500 nM	100 to 1000 nM	–
CC(=O)N1c2ccc(-c3ccc(S(C)(=O)=O)cc3)cc2N(C(=O)c2cc3cc(O)ccc3[nH]2)CC1C (stereo not drawn) [Example I-786]	50 to 500 nM	> 500 nM	1000 to 10000 nM	–
COC(=O)N1c2ccc(-c3cnn(C4CC4)c3)cc2N(C(=O)OC2CCOCC2)C[C@@H]1C [Example I-1002]	50 to 500 nM	100 to 500 nM	100 to 1000 nM	–
COC(=O)N1c2ccc(-c3ccc(C(=O)N4CC[C@H](N(C)C)C4)cc3)cc2N(C(=O)OC(C)C)C[C@@H]1C [Example I-567]	50 to 500 nM	100 to 500 nM	100 to 1000 nM	–
CC(=O)N1c2ccc(-c3ccc(S(=O)(=O)C(C)C)cc3)cc2N(C(=O)OC2CCOCC2)C[C@@H]1C [Example I-1232]	50 to 500 nM	100 to 500 nM	100 to 1000 nM	–
CC(=O)N1c2ccc(-c3cnn(C4CS(=O)(=O)C4)c3)cc2N(C(=O)OC2CCOCC2)C[C@@H]1C [Example I-37, oxan-4-yl (3S)-4-acetyl-7-[1-(1,1-dioxo-1λ^6-thietan-3-yl)-1H-pyrazol-4-yl]-3-methyl-1,2,3,4-tetrahydroquinoxaline-1-carboxylate]	50 to 500 nM	100 to 500 nM	100 to 1000 nM	–
Cc1noc(C)c1Cn1cc(-c2ccc3c(c2)N(C(=O)OC(C)C)C[C@H](C)N3C(=O)C2CC2)cn1 [Example I-617]	50 to 500 nM	100 to 500 nM	100 to 1000 nM	–
CC(=O)N1c2ccc(-c3cnn(C4CNC4)c3)cc2N(C(=O)Oc2cccnc2)C[C@@H]1C [Example I-1294]	50 to 500 nM	–	100 to 1000 nM	> 500 nM
COC(=O)N1c2ccc(-c3cnn(Cc4c[nH]cn4)c3)cc2N(C(=O)OC(C)C)CC1C (stereo not drawn) [Example I-631]	50 to 500 nM	> 500 nM	100 to 1000 nM	–
CC(=O)N1c2ccc(-c3cnn(CC(=O)N(C)C)c3)cc2N(C(=O)OC(C)C)C[C@@H]1C [Example I-305]	50 to 500 nM	100 to 500 nM	100 to 1000 nM	–

SMILES	IC50 (BRD4 BD2)	IC50 (MV4-11 cells; MV4-11, 72 h)	IC50 (BRD4 BD1)	IC50 (MV4-11 cells)
CC(=O)N1c2ccc(-c3cnn(C4CNC4)c3)cc2N(C(=O)Oc2ccc(F)cc2)C[C@@H]1C [Example I-1150]	< 50 nM	–	100 to 1000 nM	100 to 500 nM
CNC(=O)c1cccc(-c2ccc3c(c2)N(C(=O)c2ccco2)CCN3C(C)=O)c1 [Example I-868]	> 500 nM	> 500 nM	> 10000 nM	–
CC(=O)N1c2ccc(-c3cnn(C4CC4)c3)cc2N(C(=O)Oc2cccc3nccnc23)C[C@@H]1C [Example I-1204]	< 50 nM	< 100 nM	100 to 1000 nM	–
CC(=O)N1c2ccc(-c3cnn(C(C)(C)C)c3)cc2N(C(=O)OC(C)C)C[C@@H]1C [Example I-330]	50 to 500 nM	100 to 500 nM	100 to 1000 nM	–
CC(=O)N1c2ccc(-c3ccc(S(C)(=O)=O)cc3)cc2N(C(=O)Oc2ccc3ccccc3c2)C[C@@H]1C [Example I-239]	< 50 nM	100 to 500 nM	1000 to 10000 nM	–
CC(=O)N1c2ccc(-c3cnn(Cc4cccnc4)c3)cc2N(C(=O)OC(C)C)C[C@@H]1C [Example I-119, (S)-isopropyl 4-acetyl-3-methyl-7-(1-(pyridin-3-ylmethyl)-1H-pyrazol-4-yl)-3,4-dihydroquinoxaline-1(2H)-carboxylate]	< 50 nM	100 to 500 nM	100 to 1000 nM	–
CC(=O)N1c2ccc(-c3ccc(N4CCCC4=O)cc3)cc2N(C(=O)OC(C)C)C[C@@H]1C [Example I-1134]	50 to 500 nM	100 to 500 nM	100 to 1000 nM	–
CC(=O)N1c2ccc(-c3cnn(C4CC4)c3)cc2N(C(=O)Oc2ccc(Cl)c3cccnc23)C[C@@H]1C [Example I-1196]	50 to 500 nM	100 to 500 nM	100 to 1000 nM	–
CC(C)OC(=O)N1C[C@H](C)N(C(=O)C2CC2)c2ccc(-c3cnn(C4CC4)c3)cc21 [Example I-378]	50 to 500 nM	100 to 500 nM	100 to 1000 nM	–
CC(=O)N1c2ccc(-c3ccc(C(=O)NC4CC4)cc3)cc2N(C(=O)c2ccco2)C[C@@H]1C [Example I-292]	> 500 nM	100 to 500 nM	1000 to 10000 nM	–
CC(=O)N1c2ccc(-c3cnn(Cc4cnccn4)c3)cc2N(C(=O)OC(C)C)C[C@@H]1C [Example I-116, (S)-isopropyl 4-acetyl-3-methyl-7-(1-(pyrazin-2-ylmethyl)-1H-pyrazol-4-yl)-3,4-dihydroquinoxaline-1(2H)-carboxylate]	50 to 500 nM	100 to 500 nM	100 to 1000 nM	–
CC(=O)N1c2ccc(-c3ccc(C4(O)COC4)cc3)cc2N(C(=O)OC(C)C)C[C@@H]1C [Example I-473]	50 to 500 nM	100 to 500 nM	100 to 1000 nM	–
CC(=O)N1c2ccc(-c3ccc(-c4ncco4)cc3)cc2N(C(=O)c2ccco2)C[C@@H]1C [Example I-412]	< 50 nM	100 to 500 nM	1000 to 10000 nM	–
CC(=O)Nc1cc2c(cc1-c1cnn(CC(C)(C)O)c1)N(C(=O)OC(C)C)C[C@H](C)N2C(C)=O [Example I-205, Isopropyl (S)-6-acetamido-4-acetyl-7-(1-(2-hydroxy-2-methylpropyl)-1H-pyrazol-4-yl)-3-methyl-3,4-dihydroquinoxaline-1(2H)-carboxylate]	50 to 500 nM	> 500 nM	100 to 1000 nM	–
CC(=O)N1c2ccc(-c3ccc(S(C)(=O)=O)c(F)c3)cc2N(C(=O)OC(C)C)C[C@@H]1C [Example I-1085]	50 to 500 nM	> 500 nM	1000 to 10000 nM	–
CC(=O)N1c2ccc(-c3ccc(N4CCOCC4)nc3)cc2N(C(=O)c2ccco2)C[C@@H]1C [Example I-800]	50 to 500 nM	100 to 500 nM	1000 to 10000 nM	–
CNC(=O)Cn1cc(-c2ccc3c(c2)N(C(=O)OC(C)C)C[C@H](C)N3C(C)=O)cn1 [Example I-134, (S)-isopropyl 4-acetyl-3-methyl-7-(1-(2-(methylamino)-2-oxoethyl)-1H-pyrazol-4-yl)-3,4-dihydroquinoxaline-1(2H)-carboxylate]	50 to 500 nM	> 500 nM	100 to 1000 nM	–

— patent US10703764B2, “Benzopiperazine compositions as BET bromodomain inhibitors” (FORMA Therapeutics, Inc., priority 2013, dated 2020)
